Data set [1] can be described thus: LD50 /24 hours, intravenous route in mice (method of Miller and Tainter). The conditions noted are these: mouse, in vivo, read-out: LD50 /24 hours/kg of body weight. How it is done:
1, 53 mg for derivative no. 2, 89 mg for derivative no. 3, 57 mg for derivative no. 4, 41 mg for derivative no. 5, 62 mg for derivative no. 6, 66 mg for derivative no. 7, 74 mg for derivative no. 8 and 100 mg for derivative no. 9.

In a further data set the test system is dyslipaemia. The experiment in a line: Hypocholesterolaemic activity: rabbits kept on a hypercholesterolaemic diet, biological tests of dyslipaemia. The class given is in vivo. Further details: total cholesterol (T) / esterified cholesterol (E) / free cholesterol (L) / Burstein test with dextrane (B) / serum lipids (LS): unit not given here. The note with it: 10 mg/kg daily oral. How it is done:
(§1) (b) This study was carried out on rabbits kept on a hypercholesterolaemic diet. The rabbits are divided into batches of 40 animals; the control batch (A) receives no treatment, whereas the treated batches are given the medicines according to the invention. Thus, derivative no. 1 is administered to the animals in batch B, derivative no. 5 to those in batch C and derivative no. 7 to those in batch D, by oral route, daily, in dosage of 10 mg/kg. On the first day of the experiments and then every 15 days, for a period of 75 days, biological tests are carried out on all the animals, whereby the various elements which indicate dyslipaemia are determined: total cholesterol (T), esterified cholesterol (E), free cholesterol (L), esterification ratio (E/T), Kunkel phenol test (K1), Kunkel phenol test (K2), Burstein test with dextrane (B) and serum lipids (LS).
(§2) The results, representing the average values determined with each batch, are assembled in the following Tables: […]

The subject of the next data set is livers and aortas. The experiment in a line: Rabbits kept on a hypercholesterolaemic diet: macroscopic examination of livers and aortas. The note with it: 10 mg/kg daily oral, end of experiment; for aortic atheromatous lesions: marked in intensity from 0 to 4; for fatty infiltrations of the liver: marked in size from 0 to 3. It counts as in vivo. How it is done: as §1
At the end of the experiment, all the animals are killed and autopsies are performed on them; macroscopic examinations of their livers and aortas are then carried out, and the fatty infiltrations of the liver are marked, in size, from 0 to 3 and the aortic atheromatous lesions are marked, in intensity, from 0 to 4.
as §2

Data set [2] relates to stretching movements induced by acetic acid. Put plainly: Analgesic activity: acetic acid stretching movements (method of Koster, Anderson and De Beer). The class given is in vivo. The note with it: mice, 50 mg/kg oral thirty minutes before acetic acid; reduction in stretching movements in next thirty minutes. How it is done: The intraperitoneal injection of a dilute solution of acetic acid causes, in mice, repeated characteristic stretching movements under the effect of the pain. The oral administration of a dosage of 50 mg/kg of the test derivative, thirty minutes before the injection of acetic acid, reduces the number of movements in the next thirty minutes. In this way, the average number of stretching movements and the percentage analgesia obtained, corresponding to the percentage reduction in the number of stretching movements, compared with the controls, are determined.

Data set [3] concerns cholesterol level in the plasma. The experiment in a line: Hypocholesterolaemic activity: test using propyl thiouracil. The class given is in vivo. The conditions noted are these: rats, 10 mg/kg orally, 11th day. The text has this: (a) Test using propyl thiouracil ([…] and Coll., J. Pharmacol. Exper. Therap., 1963, 142, 132-136). […] On the 11th day of the experiment, blood samples are taken and the free cholesterol and total cholesterol are estimated.

Data set [4] deals with carrageenin-induced oedema. The experiment in a line: Anti-inflammatory activity: localised carrageenin-induced oedema. The class given is in vivo. The conditions noted are these: rat, 10 mg/kg oral (four administrations). How it is done: A 1% carrageenin solution (0.1 ml) is injected into the metatarsal flexors of the right hind paw of the rat at time 0. The animals in the treated batch are also given by oral route, 10 mg/kg of the test derivative, one hour before, then at the same time as the injection of the phlogogenic agent, then one hour and 21/2 hours afterwards, respectively. The measurements taken with a Roch micrometer at time 0, then 1 hour, 2 hours, 3 hours and 5 hours after administration of the carrageenin make it possible to determine, as a function of time, the percentage anti-inflammatory activity compared with the control batch.
(Carrageenan injected into the paw causes an acute inflammation.)

For a further data set, the system named is ovalbumin oedema. Put plainly: Anti-inflammatory activity: generalised ovalbumin oedema. The class given is in vivo. The note with it: rat, 50 mg oral one hour before and at injection of ovalbumin. How it is done:
The rat is given a simultaneous intraperitoneal injection of 1 ml of ovalbumin and 0.5 ml of a 1% aqueous solution of Evans blue. Moreover, 50 mg of the test derivative are administered orally to the animals of the test batches one hour before and at the same time as the injection of ovalbumin. The intensity of the phenomenon thus induced is given a mark from 1 to 5, depending on the progression of the inflammatory syndrome. Thus, the average oedematous intensity and the percentage reduction in the oedematous reaction, compared with the control, are determined.

Counter-ions that a name gives are not always drawn.

With `Cc1ccc(N2CCN(CCCNC3CCCCC3)CC2)cc1` [Derivative no. 1, 1-(3-cyclohexylamino-propyl)-4-p-tolyl-piperazine], the LD50 at 24 h in data set [1] came out at 25 mg/kg. Besides, in the data set with dyslipaemia (1st Day), the “Burstein test with dextrane (B)” value was found to be 11.1, the “Kunkel phenol test (K1)” value is on record as 8.2, the “Kunkel phenol test (K2)” value is listed as 13.7 and the “esterification ratio (E/T)” value turned out to be 0.50. In the data set with dyslipaemia (1st Day), the “esterified cholesterol (E)” value stood at 0.28, the “free cholesterol (L)” value was determined as 0.27, the “serum lipids (LS)” value was found to be 1.95 and the “total cholesterol (T)” value turned out to be 0.55. In addition, in the data set on dyslipaemia (30th Day), the “Burstein test with dextrane (B)” value was determined as 21.2, the “Kunkel phenol test (K1)” value came out at 18.6, the “Kunkel phenol test (K2)” value is listed as 25.4 and the “esterification ratio (E/T)” value is on record as 0.62. Moreover, in the data set with dyslipaemia (30th Day), the “esterified cholesterol (E)” value was determined as 0.92, the “free cholesterol (L)” value came to 0.55, the “serum lipids (LS)” value was 2.91 and the “total cholesterol (T)” value is listed as 1.47. Also, in the data set on dyslipaemia (75th Day), the “Burstein test with dextrane (B)” value was determined as 35.8, the “Kunkel phenol test (K1)” value came to 33.1, the “Kunkel phenol test (K2)” value was 41.9 and the “esterification ratio (E/T)” value turned out to be 0.66. In the data set on dyslipaemia (75th Day), the “esterified cholesterol (E)” value was determined as 1.80, the “free cholesterol (L)” value is on record as 1.12, the “serum lipids (LS)” value is reported as 4.03 and the “total cholesterol (T)” value worked out at 2.92. Also, in the data set on livers and aortas, the aortic atheromatous lesions is 1.4 and the “fatty infiltrations of the liver” value was 0.9. Besides, the “average percentage of analgesia” value in data set [2] is given as 65%.

On to `Clc1ccc(N2CCN(CCCN3CCCCC3)CC2)cc1` [Derivative no. 2, 4-p-chlorophenyl-1-(3-piperidinopropyl)-piperazine], for which the LD50 at 24 h in data set [1] is 53 mg/kg. Also, in data set [3], the Free cholesterol is 0.13 g/L and the Total cholesterol amounted to 0.62 g/L. In addition, the “average percentage of analgesia” value in data set [2] is recorded as 72%.

With `CCCNCCCN1CCN(c2ccc(F)cc2)CC1` [Derivative no. 3, 1-(p-fluorophenyl)-4-(3-N-propylamino)propyl piperazine trihydrochloride], the LD50 at 24 h in data set [1] came to 89 mg/kg. Besides, the Percentage anti-inflammatory activity in data set [4] (after 1 hr) stood at 31%; in data set [4] (after 2 hrs) it was 44%; in data set [4] (after 3 hrs), 47%; in data set [4] (after 5 hrs), 49%. For the same compound, the “Percentage reduction in oedematous reaction” value (“Percentage reduction” for short) in the data set with ovalbumin oedema (2nd hour) is 51%; with ovalbumin oedema (3rd hour) it was 62%.

Take `CCCNCCCN1CCN(c2cccc(C(F)(F)F)c2)CC1` [Derivative no. 4, 1-(3-n-propylaminopropyl)-4-(m-trifluoro-methylphenyl)-piperazine dihydrochloride]: the LD50 at 24 h in data set [1] came to 57 mg/kg. Moreover, the Percentage anti-inflammatory activity in data set [4] (after 1 hr) worked out at 39%; in data set [4] (after 2 hrs), 51%; in data set [4] (after 3 hrs), 53%; in data set [4] (after 5 hrs), 58%. For the same compound, the results for the “Percentage reduction” value with ovalbumin oedema (2nd hour) and in the data set on ovalbumin oedema (3rd hour) were 49% and 61%, respectively.

Take `Cl.Cl.Cl.Clc1ccc(N2CCN(CCCNC3CCCCC3)CC2)cc1` [Derivative no. 5, 1-(3-cyclohexylamino-propyl)-4-(p-chlorophenyl)-piperazine trihydrochloride]: the LD50 at 24 h in data set [1] came to 41 mg/kg. Moreover, in data set [3], the Free cholesterol is 0.16 g/L and the Total cholesterol amounted to 0.55 g/L. Also, in the data set with dyslipaemia (1st Day), the “Burstein test with dextrane (B)” value is 10.9, the “Kunkel phenol test (K1)” value is listed as 8.1, the “Kunkel phenol test (K2)” value stood at 12.6 and the “esterification ratio (E/T)” value came to 0.49. In the data set on dyslipaemia (1st Day), the “esterified cholesterol (E)” value was 0.28, the “free cholesterol (L)” value was found to be 0.29, the “serum lipids (LS)” value is reported as 2.1 and the “total cholesterol (T)” value was determined as 0.57. Besides, in the data set on dyslipaemia (30th Day), the “Burstein test with dextrane (B)” value is given as 21.1, the “Kunkel phenol test (K1)” value came to 18.8, the “Kunkel phenol test (K2)” value came out at 25.0 and the “esterification ratio (E/T)” value was found to be 0.62. In addition, in the data set with dyslipaemia (30th Day), the “esterified cholesterol (E)” value is given as 0.91, the “free cholesterol (L)” value came out at 0.54, the “serum lipids (LS)” value was found to be 2.85 and the “total cholesterol (T)” value was 1.45. Moreover, in the data set on dyslipaemia (75th Day), the “Burstein test with dextrane (B)” value is reported as 35.9, the “Kunkel phenol test (K1)” value worked out at 32.8, the “Kunkel phenol test (K2)” value is listed as 41.8 and the “esterification ratio (E/T)” value was determined as 0.60. For the same compound, in the data set on dyslipaemia (75th Day), the “esterified cholesterol (E)” value is 1.78, the “free cholesterol (L)” value was 1.14, the “serum lipids (LS)” value is recorded as 4.1 and the “total cholesterol (T)” value turned out to be 2.92. Besides, in the data set on livers and aortas, the aortic atheromatous lesions is on record as 1.2 and the “fatty infiltrations of the liver” value was 1.0.

Take `Clc1ccccc1N1CCN(CCCNC2CCCCC2)CC1` [Derivative no. 6, 4-(o-chlorophenyl)-1-(3-cyclohexylamino)-propylpiperazine trihydrochloride]: the LD50 at 24 h in data set [1] is 62 mg/kg. In data set [3], this compound registered a Free cholesterol of 0.15 g/L and a Total cholesterol of 0.53 g/L. Besides, the “average percentage of analgesia” value in data set [2] was determined as 61%.

Consider `COc1ccc(N2CCN(CCCN3CCCC3)CC2)cc1.Cl.Cl.Cl` [Derivative no. 8, 1-(p-methoxyphenyl)-4-(3-pyrrolidino-propyl)-piperazine trihydrochloride], for which the LD50 at 24 h in data set [1] is 74 mg/kg. Besides, the Percentage anti-inflammatory activity in data set [4] (after 1 hr) is reported as 37%; in data set [4] (after 2 hrs), 48%; in data set [4] (after 3 hrs), 50%; in data set [4] (after 5 hrs), 54%. Further, the “Percentage reduction” value came to 55% in the data set on ovalbumin oedema (2nd hour) and 68% with ovalbumin oedema (3rd hour).

As to `Clc1ccc(N2CCN(CCCN3CCOCC3)CC2)cc1` [Derivative no. 9, dimaleate], the LD50 at 24 h in data set [1] came to 100 mg/kg. In data set [3], this compound displayed a Free cholesterol of 0.13 g/L and a Total cholesterol of 0.57 g/L.

(Values after US4119719A, “Piperazine compounds” (Parcor, priority 1975, dated 1978).)
